This assay has as its target T1, human OX2 receptor (Homo sapiens, UniProt O43614).
T1 construct: expressed in transfected cells
T1 sequence (O43614 1-444): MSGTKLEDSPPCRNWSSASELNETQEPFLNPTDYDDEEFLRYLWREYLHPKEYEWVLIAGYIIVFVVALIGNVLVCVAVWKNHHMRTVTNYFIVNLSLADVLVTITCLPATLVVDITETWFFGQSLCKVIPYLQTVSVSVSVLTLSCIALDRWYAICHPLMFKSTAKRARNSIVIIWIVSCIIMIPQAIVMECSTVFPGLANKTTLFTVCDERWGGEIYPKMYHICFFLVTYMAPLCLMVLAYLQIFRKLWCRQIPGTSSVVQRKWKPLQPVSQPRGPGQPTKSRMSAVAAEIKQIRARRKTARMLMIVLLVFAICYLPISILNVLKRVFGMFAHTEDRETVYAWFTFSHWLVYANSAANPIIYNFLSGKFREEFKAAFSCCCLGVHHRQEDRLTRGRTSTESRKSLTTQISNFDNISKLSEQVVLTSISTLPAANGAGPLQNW
The experiment in a line: Measurement of orexin type 2 receptor agonist activity (calcium fluorescence, Fluo-4, FDSS). It counts as cell-based. The following applies: 3 uM test compound; CHO cells expressing human OX2 receptor; DMSO = 0%, 10 nM orexin A (human) = 100%. A digest of the protocol: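 CHO-K1 cells stably expressing human OX2 receptor (residues 1-444) were loaded with Fluo-4 AM plus probenecid. Calcium fluorescence after compound addition was recorded for 1 min 40 s. Activity (%) was scaled between DMSO (0%) and 10 nM orexin A final (100%).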

As for `CS(=O)(=O)N[C@@H]1Cn2c(cn(-c3noc4ccc(F)c(-c5c(F)cccc5F)c34)c2=O)C1(F)F` [Example 75, N-{(6R)-2-[4-(2,6-Difluorophenyl)-5-fluoro-1,2-benzoxazol-3-yl]-7,7-difluoro-3-oxo-2,5,6,7-tetrahydro-3H-pyrrolo[1,2-c]imidazol-6-yl}methanesulfonamide], the “OX2R agonist activity (3 uM, %)” value turned out to be 99%. For `CCS(=O)(=O)N[C@@H]1Cn2c(cn(-c3noc4ccc(F)c(-c5c(F)cccc5F)c34)c2=O)C1(F)F` [Example 76, N-{(6R)-2-[4-(2,6-difluorophenyl)-5-fluoro-1,2-benzoxazol-3-yl]-7,7-difluoro-3-oxo-2,5,6,7-tetrahydro-3H-pyrrolo[1,2-c]imidazol-6-yl}ethanesulfonamide] the value was 105%; for `CCS(=O)(=O)N[C@@H]1Cn2c(cn(-c3noc4cc(Cl)c(F)c(-c5c(F)cccc5F)c34)c2=O)C1(F)F` [Example 78, N-{(6R)-2-[6-chloro-4-(2,6-difluorophenyl)-5-fluoro-1,2-benzoxazol-3-yl]-7,7-difluoro-3-oxo-2,5,6,7-tetrahydro-3H-pyrrolo[1,2-c]imidazol-6-yl}ethanesulfonamide], 104%. Take `CCS(=O)(=O)N[C@@H]1CN2C(=O)N(c3noc4cc(Cl)c(F)c(-c5c(F)cccc5F)c34)C[C@@H]2C1(F)F` [Example 79, N-{(6R,7aR)-2-[6-chloro-4-(2,6-difluorophenyl)-5-fluoro-1,2-benzoxazol-3-yl]-7,7-difluoro-3-oxohexahydro-1H-pyrrolo[1,2-c]imidazol-6-yl}ethanesulfonamide]: the “OX2R agonist activity (3 uM, %)” value is listed as 99%. Regarding `CCS(=O)(=O)N[C@H]1C[C@H]2CN(c3noc4cccc(-c5sccc5C)c34)C(=O)N2C1` [Example 83, N-{(6S,7aS)-2-[4-(3-methylthiophen-2-yl)-1,2-benzoxazol-3-yl]-3-oxohexahydro-1H-pyrrolo[1,2-c]imidazol-6-yl}ethanesulfonamide], the “OX2R agonist activity (3 uM, %)” value amounted to 84%. For `CCS(=O)(=O)N[C@H]1Cc2cn(-c3noc4cc(C(F)(F)F)cc(-c5c(F)cccc5F)c34)c(=O)n2C1` [Example 84, N-{(6S)-2-[4-(2,6-difluorophenyl)-6-(trifluoromethyl)-1,2-benzoxazol-3-yl]-3-oxo-2,5,6,7-tetrahydro-3H-pyrrolo[1,2-c]imidazol-6-yl}ethanesulfonamide], the “OX2R agonist activity (3 uM, %)” value is 92%. Next, `CCS(=O)(=O)N[C@H]1Cc2cn(-c3c(C)nn4cccc(-c5c(F)cccc5F)c34)c(=O)n2C1` [Example 85, N-{(6S)-2-[4-(2,6-difluorophenyl)-2-methylpyrazolo[1,5-a]pyridin-3-yl]-3-oxo-2,5,6,7-tetrahydro-3H-pyrrolo[1,2-c]imidazol-6-yl}ethanesulfonamide]: 95%. On to `CCS(=O)(=O)N[C@H]1Cc2c(C)n(-c3noc4cc(C(F)(F)F)cc(-c5c(F)cccc5F)c34)c(=O)n2C1` [Example 86, N-{(6S)-2-[4-(2,6-difluorophenyl)-6-(trifluoromethyl)-1,2-benzoxazol-3-yl]-1-methyl-3-oxo-2,5,6,7-tetrahydro-3H-pyrrolo[1,2-c]imidazol-6-yl}ethanesulfonamide], for which the “OX2R agonist activity (3 uM, %)” value worked out at 103%. Next, `CS(=O)(=O)N[C@@H]1CN2C(=O)N(c3noc4cc(Cl)cc(-c5c(F)cccc5F)c34)C[C@@H]2C1(F)F` [Example 87, N-{(6R,7aR)-2-[6-chloro-4-(2,6-difluorophenyl)-1,2-benzoxazol-3-yl]-7,7-difluoro-3-oxohexahydro-1H-pyrrolo[1,2-c]imidazol-6-yl}methanesulfonamide]: 91%. Next, `Cn1nc2cccc(-c3c(F)cccc3F)c2c1-n1cc2n(c1=O)C[C@@H](NS(C)(=O)=O)C2` [Example 88, N-{(6S)-2-[4-(2,6-difluorophenyl)-2-methyl-2H-indazol-3-yl]-3-oxo-2,5,6,7-tetrahydro-3H-pyrrolo[1,2-c]imidazol-6-yl}methanesulfonamide]: 79%; `O=C1N(c2noc3cccc(-c4c(F)cccc4F)c23)C[C@H]2N1C[C@@H](NS(=O)(=O)C1CC1)C2(F)F` [Example 89, N-{(6R,7aR)-2-[4-(2,6-difluorophenyl)-1,2-benzoxazol-3-yl]-7,7-difluoro-3-oxohexahydro-1H-pyrrolo[1,2-c]imidazol-6-yl}cyclopropanesulfonamide]: 95%.

As for `CS(=O)(=O)N[C@@H]1Cn2c(cn(-c3noc4cc(Cl)cc(-c5c(F)cc(F)cc5F)c34)c2=O)C1(F)F` [Example 90, N-{(6R)-2-[6-chloro-4-(2,4,6-trifluorophenyl)-1,2-benzoxazol-3-yl]-7,7-difluoro-3-oxo-2,5,6,7-tetrahydro-3H-pyrrolo[1,2-c]imidazol-6-yl}methanesulfonamide], the “OX2R agonist activity (3 uM, %)” value was found to be 107%.

Take `CCS(=O)(=O)N[C@@H]1Cn2c(cn(-c3noc4cccc(-c5c(F)cc(F)cc5F)c34)c2=O)C1(F)F` [Example 91, N-{(6R)-7,7-difluoro-3-oxo-2-[4-(2,4,6-trifluorophenyl)-1,2-benzoxazol-3-yl]-2,5,6,7-tetrahydro-3H-pyrrolo[1,2-c]imidazol-6-yl}ethanesulfonamide]: the “OX2R agonist activity (3 uM, %)” value is on record as 103%. For `CCS(=O)(=O)N[C@@H]1Cn2c(cn(-c3noc4ccc(F)c(-c5c(F)cc(F)cc5F)c34)c2=O)C1(F)F` [Example 92, N-{(6R)-7,7-Difluoro-2-[5-fluoro-4-(2,4,6-trifluorophenyl)-1,2-benzoxazol-3-yl]-3-oxo-2,5,6,7-tetrahydro-3H-pyrrolo[1,2-c]imidazol-6-yl}ethanesulfonamide] the value was 98%; for `CCS(=O)(=O)N[C@@H]1CN2C(=O)N(c3noc4cc(Cl)c(F)c(-c5c(F)cc(F)cc5F)c34)C[C@@H]2C1(F)F` [Example 93, N-{(6R,7aR)-2-[6-chloro-5-fluoro-4-(2,4,6-trifluorophenyl)-1,2-benzoxazol-3-yl]-7,7-difluoro-3-oxohexahydro-1H-pyrrolo[1,2-c]imidazol-6-yl}ethanesulfonamide], 99%. For `CCS(=O)(=O)N[C@@H]1Cn2c(cn(-c3noc4cc(Cl)c(F)c(-c5c(F)cc(F)cc5F)c34)c2=O)C1(F)F` [Example 94, N-{(6R)-2-[6-chloro-5-fluoro-4-(2,4,6-trifluorophenyl)-1,2-benzoxazol-3-yl]-7,7-difluoro-3-oxo-2,5,6,7-tetrahydro-3H-pyrrolo[1,2-c]imidazol-6-yl}ethanesulfonamide] the value was 106%; for `CS(=O)(=O)N[C@@H]1Cn2c(cn(-c3noc4cc(Cl)c(F)c(-c5c(F)cccc5F)c34)c2=O)C1(F)F` [Example 95, N-{(6R)-2-[6-chloro-4-(2,6-difluorophenyl)-5-fluoro-1,2-benzoxazol-3-yl]-7,7-difluoro-3-oxo-2,5,6,7-tetrahydro-3H-pyrrolo[1,2-c]imidazol-6-yl}methanesulfonamide], 104%. Next, `CS(=O)(=O)N[C@@H]1Cn2c(cn(-c3noc4cccc(-c5c(F)cccc5F)c34)c2=O)C1(F)F` [Example 102, N-{(6R)-2-[4-(2,6-Difluorophenyl)-1,2-benzoxazol-3-yl]-7,7-difluoro-3-oxo-2,5,6,7-tetrahydro-3H-pyrrolo[1,2-c]imidazol-6-yl}methanesulfonamide]: 100%; `Cn1nc(-n2cc3n(c2=O)C[C@@H](NS(C)(=O)=O)C3)c2c(-c3c(F)cccc3F)cccc21` [Example 103, N-{(6S)-2-[4-(2,6-difluorophenyl)-1-methyl-1H-indazol-3-yl]-3-oxo-2,5,6,7-tetrahydro-3H-pyrrolo[1,2-c]imidazol-6-yl}methanesulfonamide]: 106%. In the case of `CCS(=O)(=O)N[C@@H]1CN2C(=O)N(c3noc4ccc(F)c(-c5c(F)cc(F)cc5F)c34)C[C@@H]2C1(F)F` [Example 105, N-{(6R,7aR)-7,7-difluoro-2-[5-fluoro-4-(2,4,6-trifluorophenyl)-1,2-benzoxazol-3-yl]-3-oxohexahydro-1H-pyrrolo[1,2-c]imidazol-6-yl}ethanesulfonamide], the “OX2R agonist activity (3 uM, %)” value is 96%.

For the compound `CS(=O)(=O)N[C@@H]1Cn2c(cn(-c3noc4cc(Cl)c(F)c(-c5c(F)cc(F)cc5F)c34)c2=O)C1(F)F` [Example 106, N-{(6R)-2-[6-chloro-5-fluoro-4-(2,4,6-trifluorophenyl)-1,2-benzoxazol-3-yl]-7,7-difluoro-3-oxo-2,5,6,7-tetrahydro-3H-pyrrolo[1,2-c]imidazol-6-yl}methanesulfonamide], the “OX2R agonist activity (3 uM, %)” value was 103%.

For the compound `CS(=O)(=O)N[C@@H]1CN2C(=O)N(c3noc4cc(Cl)c(F)c(-c5c(F)cccc5F)c34)C[C@@H]2C1(F)F` [Example 107, N-{(6R,7aR)-2-[6-chloro-4-(2,6-difluorophenyl)-5-fluoro-1,2-benzoxazol-3-yl]-7,7-difluoro-3-oxohexahydro-1H-pyrrolo[1,2-c]imidazol-6-yl}methanesulfonamide], the “OX2R agonist activity (3 uM, %)” value was determined as 101%.

For the origin of these results see patent US11987586B1 (TAKEDA PHARMACEUTICAL COMPANY LIMITED, priority 2022, dated 2024).
